Test results as given in the NIST ThermoML archive (doi:10.1021/je101317k).
Numbers after ± are expanded uncertainties.

Assays:
[1] = refractive index (other wavelength) (dimensionless); settings: 101 kPa, Liquid, Wavelength=632.8 nm, Standard Abbe refractometry
[2] = refractive index (other wavelength) (dimensionless); xn = mol fraction of the nth substance listed; settings: 101 kPa, Liquid, Wavelength=632.8 nm, Standard Abbe refractometry

COC(=O)OC [dimethyl carbonate]
refractive index ([1]; 277.78 K): 1.3747 ± 0.0004
refractive index ([1]; 278.13 K): 1.3745 ± 0.0004
refractive index ([1]; 279.18 K): 1.374 ± 0.0004
refractive index ([1]; 280.25 K): 1.3735 ± 0.0004
refractive index ([1]; 280.74 K): 1.3733 ± 0.0004
refractive index ([1]; 281.69 K): 1.3728 ± 0.0004
refractive index ([1]; 293.19 K): 1.3676 ± 0.0004
refractive index ([1]; 294.27 K): 1.3671 ± 0.0004
refractive index ([1]; 295.3 K): 1.3666 ± 0.0004
refractive index ([1]; 296.34 K): 1.3661 ± 0.0004
refractive index ([1]; 297.38 K): 1.3656 ± 0.0004
refractive index ([1]; 298.4 K): 1.3651 ± 0.0004
refractive index ([1]; 299.48 K): 1.3647 ± 0.0004

COC(=O)OC [dimethyl carbonate] + CCCCCCCCC
refractive index ([2]; 281.69 K, x1 = 1): 1.3728 ± 0.0004

CCCCCCCCCCCC [dodecane]
refractive index ([1]; 293.28 K): 1.4203 ± 0.0004
refractive index ([1]; 294.33 K): 1.4198 ± 0.0004
refractive index ([1]; 295.37 K): 1.4194 ± 0.0004
refractive index ([1]; 296.54 K): 1.4189 ± 0.0004
refractive index ([1]; 297.58 K): 1.4184 ± 0.0004
refractive index ([1]; 298.65 K): 1.418 ± 0.0004
refractive index ([1]; 299.72 K): 1.4175 ± 0.0004

CCCCCCCCCCCC [dodecane] + COC(=O)OC
refractive index ([2]; 299.73 K, x2 = 0.103): 1.414 ± 0.0004
refractive index ([2]; 299.73 K, x2 = 0.204): 1.4106 ± 0.0004
refractive index ([2]; 299.73 K, x2 = 0.299): 1.4071 ± 0.0004
refractive index ([2]; 299.73 K, x2 = 0.409): 1.4028 ± 0.0004
refractive index ([2]; 299.73 K, x2 = 0.512): 1.3983 ± 0.0004
refractive index ([2]; 299.73 K, x2 = 0.611): 1.3934 ± 0.0004
refractive index ([2]; 299.73 K, x2 = 0.713): 1.3875 ± 0.0004
refractive index ([2]; 299.73 K, x2 = 0.791): 1.3823 ± 0.0004
refractive index ([2]; 299.73 K, x2 = 0.899): 1.3739 ± 0.0004

CCCCCCCCC [nonane]
refractive index ([1]; 277.15 K): 1.4116 ± 0.0004
refractive index ([1]; 278.19 K): 1.4111 ± 0.0004
refractive index ([1]; 279.2 K): 1.4106 ± 0.0004
refractive index ([1]; 279.71 K): 1.4104 ± 0.0004
refractive index ([1]; 280.28 K): 1.4101 ± 0.0004
refractive index ([1]; 281.69 K): 1.4095 ± 0.0004

CCCCCCCCC [nonane] + COC(=O)OC
refractive index ([2]; 281.69 K, x2 = 0): 1.4095 ± 0.0004
refractive index ([2]; 281.69 K, x2 = 0.105): 1.4061 ± 0.0004
refractive index ([2]; 281.69 K, x2 = 0.201): 1.4031 ± 0.0004
refractive index ([2]; 281.69 K, x2 = 0.305): 1.3999 ± 0.0004
refractive index ([2]; 281.69 K, x2 = 0.405): 1.3968 ± 0.0004
refractive index ([2]; 281.69 K, x2 = 0.505): 1.3936 ± 0.0004
refractive index ([2]; 281.69 K, x2 = 0.596): 1.3905 ± 0.0004
refractive index ([2]; 281.69 K, x2 = 0.706): 1.3863 ± 0.0004
refractive index ([2]; 281.69 K, x2 = 0.8): 1.3822 ± 0.0004
refractive index ([2]; 281.69 K, x2 = 0.888): 1.3781 ± 0.0004
